Test results reported in patent US6479493B1, “Methods for treatment of type I diabetes” (Cell Pathways, Inc., priority 2001, dated 2002).
pIC50: −log10 of the molar value. Structures can show the parent of a compound that is named as a salt.

What was measured:
[1] = target: T1, cGMP binding sites of the GST-cGB-PDE5 fusion protein (Homo sapiens, UniProt O76074); assay: cGMP binding assay with GST-cGB-PDE5 fusion protein; settings: 3H-cGMP 2 μM, 22° C., 1 hour
T1 construct: made in house; host or cells: E. coli BL21 (DE3)
From the text: RT-PCR method is used to obtain the cGB domain of PDE5 with forward and reverse primers designed from bovine PDE5A cDNA sequence (McAllister-Lucas L. M. et al, J. Biol. Chem. 268, 22863-22873, 1993) and the selection among PDE 1-10 families. 5′-3′, Inc. kits for total RNA followed by oligo (dT) column purification of mRNA are used with HT-29 cells. […] It is then cloned into pGEX-5X-3 glutathione-S-ransferase (GST) fusion vector (Pharmacia Biotech )with tac promoter, and EcoRI and XhoI cut sites. The fusion vector is then transfected into E. Coli BL21 (DE3) bacteria (Invitrogen). The transfected BL21 bacteria is grown to log phase, and then IPTG is added as an inducer. The induction is carried at 20° C. for 24 hrs. The bacteria are harvested and lysed. The soluble cell lysate is incubated with GSH conjugated Sepharose 4B (GSH-Sepharose 4B). The GST-cGB-pDE5 fusion protein can bind to the GSH-Sepharose beads, and the other proteins are washed off from beads with excessive cold PBS.
Then, the mixture is transferred to Brandel MB-24 cell harvester with GF/B as the filter membrane followed by 2 washes with 10 mL of cold 5 mM potassium buffer(pH 6.8). The membranes are then cut out and transferred to scintillation vials followed by the addition of 1 mL of H2O and 6 mL of Ready Safe™ liquid scintillation cocktail to each vial. The vials are counted on a Beckman LS 6500 scintillation counter.
The quenching by filter membrane or other debris are also calibrated.

[2] = tested on: PDE4; assay: PDE inhibition, similar protocols; assay type: biochemical
[3] = tested on: rats; assay: acute toxicity study in rats; settings: rat, in vivo
[4] = tested on: dogs; assay: acute / seven-dose toxicity in dogs; settings: dog, in vivo
Description: Therefore, these dogs were subsequently administered seven consecutive doses of 1000 mg/kg/day.

[5] = tested on: rats; assay: 28-day study in rats; assay type: in vivo, rat
Description: A 28-day study in rats was also carried out at 0, 50, 500 and 2000 mg/kg/day.

[6] = tested on: rats; assay: 91-day long-term safety assessment study in rats; assay type: in vivo, rat
From the text: These changes were not associated with any gross clinical abnormality.

[7] = tested on: dogs; assay: 91-day oral study in dogs; assay type: in vivo, dog
[8] = tested on: human patients; assay: single, escalating dose human clinical safety trial; assay type: in vivo; settings: humans, oral, 50, 100, 200 and 400 mg BID
From the text: One skilled in the art should recognize that any of the side effects observed in these safety studies occurred at very high doses, in excess of recommended human doses and are extremely minimal compared to what one would expect at similar doses of other proposed therapies.

[9] = tested on: TNF-α secreted by TPA-induced U937 cells; assay: TNF-α immunoassay on media of TPA-treated U937 cells; assay type: cell-based; settings: cell culture media (FIG. 12)
Description: One function of macrophages is to modulate the activity of other inflammatory cells through various cytokine molecules.
TNF-α levels in the cell culture media were determined by using the TNF-α Immunoassay from R&D Systems (Cat. #DTA50) according to the manufacturer's protocol.

[10] = 28 days, 50, 500 and 2000 mg/kg/day
[11] = 91 days, highest dose group (300 mg/kg/day)

## CC1=C(CC(=O)NCc2ccccc2)c2cc(F)ccc2/C1=C\c1ccncc1 [Example 38, (Z)-5-Fluoro-2-methyl-(4-pyridylidene)-3-(N-benzyl)indenylacetamide Hydrochloride]
[1]
  competition with cGMP in binding to the cGMP binding sites of GST-cGB-PDE5: does not bind to the cGMP-binding site of PDE5
[2]
  pIC50: 5.22
[3]; ip, 1000 mg/kg
  body weight gain: reduced body weight gain
  necropsy findings: mesenteric adhesions seen in some animals
[3]; po, 2000 mg/kg
  body weight gains: slightly reduced
[4]; 1000 mg/kg
  signs of toxicity: no signs of toxicity
[4]; 1000 mg/kg/day
  signs of drug-related effects: At no time in either dosing phase were any obvious signs of drug-related effects observed
[5]; 28 days
  macroscopic tissue changes at necropsy: No macroscopic tissue changes
[5]; 28 days, 2000 mg/kg/day
  liver weights: statistically significant increase in liver weights
  thyroid weights: statistically significant increases in thyroid weights
[5]; [10]
  body weight changes, ophthalmoscopic examinations, hematological and blood chemistry values, urinalysis: unremarkable
  clinical observations: no abnormal clinical observations
[5]; 28 days, generally a small number of animals at 2000 mg/kg/day
  histopathological evaluation of tissues: traces of follicular cell hypertrophy, increased numbers of mitotic figures (suggestive of possible cell proliferation) in the thyroid gland and mild centrilobular hypertrophy in the liver
[5]; 28 days, lower doses (50, 500 mg/kg/day)
  liver and thyroid weight increases at the lower doses: not statistically significant
[6]; 91 days
  clinical biochemistry and hematology: no changes in clinical biochemistry and hematology were evident
[6]; 91 days, 500 mg/kg/day
  microscopic finding, follicular cells: follicular cell hypertrophy
[6]; 91 days, 200 and 500 mg/kg/day
  microscopic finding, kidneys: increase in accumulation of hyalin droplets in the kidneys
  microscopic finding, liver: slight hepatocellular hypertrophy
[6]; 91 days, males and females at 200 and 500 mg/kg/day
  liver and thyroid/parathyroid weights: dose-related trend to increased liver and thyroid/parathyroid weights
[6]; oral, 91 days, 50, 200 and 500 mg/kg/day
  toxicological effects overall: did not produce any major toxicological effects
[7]; 91 days, 150 and 300 mg/kg/day
  feces observation: Orange discoloration of the feces
[7]; 91 days, highest dose group
  microscopic alterations (liver): no microscopic alterations
[7]; [11]
  body weights: Slightly lowered body weights
  liver weights: increased liver weights
[7]; oral, 91 days
  route of elimination (suggested by feces colour): most of Compound 38 was being eliminated via the feces
[7]; oral, 91 days, 50, 150 and 300 mg/kg/day
  toxicological effects overall: no toxicological effects
[8]
  side effects: no significant side effects at any dose
[9]
  level of TNF-α secreted: significantly reduced
